Test results from patent US12065443B2, “Compounds and pharmaceutical compositions thereof for the treatment of diseases” (priority 2017, dated 2024).

How the values were obtained:
Assay in all cases: biochemical
SIK1 = target: T1, SIK1 (Homo sapiens, UniProt P57059); conditions: 33P radioactive SIK kinase assay, AMARA peptide, 10 μM ATP; read-out: SIK1 IC50
T1 construct: purchased Carna Biosciences 02-131
Procedure: (§1) The principle of the ^33P radioactive kinase assay consists in measuring the incorporated ^33P into the substrate AMARA peptide when phosphorylated by SIK1, SIK2 or SIK3 using [^33P]-g-ATP, which correlates with kinase activity.
(§2) 1% DMSO and 10 μM staurosporine final concentrations are used as negative and positive controls.
(§3) 11 μL of enzyme-substrate mixture is added on the assay plates. The reactions are started by adding 9 μL ATP mixture, consisting of non-labeled and ^33P-labeled ATP, on the assay plates.
(§4) The reactions are stopped by adding 25 μL phosphoric acid (150 mM) to the reactions.
(§5) After harvesting the kinase reactions, the filter plates are washed 6 times with phosphoric acid (75 mM). […] The top of the plates are sealed with TopSeal-A. Read-out is performed with a TopCount instrument (PerkinElmer Inc.).

SIK2 = target: T2, SIK2 (Homo sapiens, UniProt Q9H0K1); conditions: 33P radioactive SIK kinase assay, AMARA peptide, 10 μM ATP
T2 construct: purchased ThermoFisher Scientific PV4792
T2 sequence (Q9H0K1 whole entry): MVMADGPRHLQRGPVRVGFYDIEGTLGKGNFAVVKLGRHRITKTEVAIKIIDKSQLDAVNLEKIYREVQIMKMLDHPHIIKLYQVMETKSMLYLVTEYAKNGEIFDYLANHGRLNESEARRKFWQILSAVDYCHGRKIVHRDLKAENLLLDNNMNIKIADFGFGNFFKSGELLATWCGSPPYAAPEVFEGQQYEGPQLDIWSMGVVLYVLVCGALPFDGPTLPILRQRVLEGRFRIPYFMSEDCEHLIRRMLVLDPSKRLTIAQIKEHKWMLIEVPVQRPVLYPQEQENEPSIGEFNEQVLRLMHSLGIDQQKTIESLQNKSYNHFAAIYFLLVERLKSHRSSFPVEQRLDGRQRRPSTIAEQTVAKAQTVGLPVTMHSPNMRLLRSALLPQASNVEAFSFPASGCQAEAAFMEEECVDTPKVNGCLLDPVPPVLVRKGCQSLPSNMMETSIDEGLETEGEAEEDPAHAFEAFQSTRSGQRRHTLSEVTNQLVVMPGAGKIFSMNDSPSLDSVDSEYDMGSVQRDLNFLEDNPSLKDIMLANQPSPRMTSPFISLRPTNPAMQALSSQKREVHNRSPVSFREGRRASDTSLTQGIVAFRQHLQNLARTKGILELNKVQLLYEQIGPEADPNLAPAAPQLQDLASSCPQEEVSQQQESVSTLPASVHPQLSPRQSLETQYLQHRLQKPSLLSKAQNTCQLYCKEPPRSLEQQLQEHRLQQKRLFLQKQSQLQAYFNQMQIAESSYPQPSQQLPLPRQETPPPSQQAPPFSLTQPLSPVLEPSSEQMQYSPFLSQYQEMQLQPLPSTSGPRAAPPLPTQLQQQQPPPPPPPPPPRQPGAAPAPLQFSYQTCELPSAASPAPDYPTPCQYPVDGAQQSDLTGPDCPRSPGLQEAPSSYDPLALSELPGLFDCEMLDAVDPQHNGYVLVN
Procedure: as §1, §2, §3, §4, §5

SIK3 = target: T3, SIK3 (Homo sapiens, UniProt Q9Y2K2)
T3 construct: purchased SignalChem S12-11G-100
T3 sequence (Q9Y2K2 whole entry): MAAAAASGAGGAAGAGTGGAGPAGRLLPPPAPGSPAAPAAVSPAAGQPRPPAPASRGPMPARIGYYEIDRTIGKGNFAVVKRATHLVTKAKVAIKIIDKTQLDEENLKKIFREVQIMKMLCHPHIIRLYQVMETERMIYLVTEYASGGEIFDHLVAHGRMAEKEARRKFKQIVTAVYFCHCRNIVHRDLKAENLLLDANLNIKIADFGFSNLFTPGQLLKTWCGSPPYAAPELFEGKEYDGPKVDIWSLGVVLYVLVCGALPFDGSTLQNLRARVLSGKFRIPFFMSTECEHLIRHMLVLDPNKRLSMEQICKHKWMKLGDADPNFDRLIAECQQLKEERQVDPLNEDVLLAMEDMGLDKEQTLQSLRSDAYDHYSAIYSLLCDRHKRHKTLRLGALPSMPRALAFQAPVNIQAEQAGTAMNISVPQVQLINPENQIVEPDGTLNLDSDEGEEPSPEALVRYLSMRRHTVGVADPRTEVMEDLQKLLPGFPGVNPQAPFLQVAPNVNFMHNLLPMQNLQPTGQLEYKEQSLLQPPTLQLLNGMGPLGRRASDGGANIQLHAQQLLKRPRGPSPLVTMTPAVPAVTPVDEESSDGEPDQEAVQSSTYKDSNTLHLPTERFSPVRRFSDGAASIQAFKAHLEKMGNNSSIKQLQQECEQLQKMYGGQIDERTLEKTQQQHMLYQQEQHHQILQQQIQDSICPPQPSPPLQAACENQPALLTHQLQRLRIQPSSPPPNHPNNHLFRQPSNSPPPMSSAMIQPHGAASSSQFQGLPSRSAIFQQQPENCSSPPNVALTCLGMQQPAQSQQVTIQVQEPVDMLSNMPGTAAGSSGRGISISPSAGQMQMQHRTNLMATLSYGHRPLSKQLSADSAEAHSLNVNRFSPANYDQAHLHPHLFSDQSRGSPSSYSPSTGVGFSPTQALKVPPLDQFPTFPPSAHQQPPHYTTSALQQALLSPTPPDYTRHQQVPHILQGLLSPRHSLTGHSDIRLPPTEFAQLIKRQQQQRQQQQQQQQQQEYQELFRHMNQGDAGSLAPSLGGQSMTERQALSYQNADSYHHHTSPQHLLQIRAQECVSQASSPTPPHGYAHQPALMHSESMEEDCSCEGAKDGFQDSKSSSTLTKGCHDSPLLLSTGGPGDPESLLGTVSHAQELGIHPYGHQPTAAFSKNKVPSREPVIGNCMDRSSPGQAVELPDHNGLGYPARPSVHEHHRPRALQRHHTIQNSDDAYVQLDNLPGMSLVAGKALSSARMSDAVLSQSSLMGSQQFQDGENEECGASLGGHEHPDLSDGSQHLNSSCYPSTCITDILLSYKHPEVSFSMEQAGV
Procedure: as §1, §2, §3, §4, §5

T1 sequence (P57059 whole entry): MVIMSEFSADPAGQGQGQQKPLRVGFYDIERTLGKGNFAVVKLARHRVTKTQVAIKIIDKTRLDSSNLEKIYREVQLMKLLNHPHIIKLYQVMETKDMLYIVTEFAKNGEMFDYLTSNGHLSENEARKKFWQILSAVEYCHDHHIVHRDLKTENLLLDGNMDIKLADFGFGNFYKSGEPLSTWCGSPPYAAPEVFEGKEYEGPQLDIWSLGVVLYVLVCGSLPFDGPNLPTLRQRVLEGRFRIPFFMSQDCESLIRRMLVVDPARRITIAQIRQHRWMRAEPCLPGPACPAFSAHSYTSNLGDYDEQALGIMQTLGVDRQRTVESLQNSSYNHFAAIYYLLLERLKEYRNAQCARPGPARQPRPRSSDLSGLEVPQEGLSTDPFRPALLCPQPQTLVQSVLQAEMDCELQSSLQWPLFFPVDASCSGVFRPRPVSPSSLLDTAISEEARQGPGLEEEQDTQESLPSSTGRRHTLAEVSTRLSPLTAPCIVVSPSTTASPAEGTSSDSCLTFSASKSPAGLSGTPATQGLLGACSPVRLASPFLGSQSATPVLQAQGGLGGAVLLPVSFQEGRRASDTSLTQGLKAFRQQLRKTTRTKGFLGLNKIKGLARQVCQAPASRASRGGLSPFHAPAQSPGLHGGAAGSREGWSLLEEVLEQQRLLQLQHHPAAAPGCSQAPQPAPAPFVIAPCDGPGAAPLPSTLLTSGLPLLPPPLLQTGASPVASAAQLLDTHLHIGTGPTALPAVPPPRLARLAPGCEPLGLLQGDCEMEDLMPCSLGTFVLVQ

IC50 (SIK1) | IC50 (SIK2) | IC50 (SIK3) | Structure (SMILES)
10 to 100 nM | 10 to 100 nM | 10 to 100 nM | COc1cc(-n2cnc3cc(-c4cnn(C)c4)ccc32)cc(OC)c1C(=O)NCCC#N [compound 59, N-(2-cyanoethyl)-2,6-dimethoxy-4-[5-(1-methylpyrazol-4-yl)benzimidazol-1-yl]benzamide]
> 500 nM | > 500 nM | 100 to 500 nM | COc1cc(-c2cnc3cc(-c4cncnc4C(C)C)ccn23)cc(OC)c1C(=O)NCC(F)(F)F [compound 253, 4-[7-(4-isopropylpyrimidin-5-yl)imidazo[1,2-a]pyridin-3-yl]-2,6-dimethoxy-N-(2,2,2-trifluoroethyl)benzamide]
> 500 nM | > 500 nM | 100 to 500 nM | COc1cc(-n2cnc3cc(-c4cnccn4)ccc32)cc(OC)c1C(=O)NCC(F)(F)F [compound 128, 2,6-dimethoxy-4-(5-pyrazin-2-ylbenzimidazol-1-yl)-N-(2,2,2-trifluoroethyl)benzamide]
100 to 500 nM | 100 to 500 nM | 100 to 500 nM | COc1cc(-n2cnc3cc(-c4cnn(C)c4)ccc32)cc(OC)c1C(=O)NC[C@@H]1COCCO1 [compound 67, N-[[(2R)-1,4-dioxan-2-yl]methyl]-2,6-dimethoxy-4-[5-(1-methylpyrazol-4-yl)benzimidazol-1-yl]benzamide]
> 500 nM | > 500 nM | > 500 nM | COc1cc(-n2cnc3cc(-c4cnn(C)c4)ccc32)cc(OC)c1C(=O)N1CCC1c1ccccc1 (stereo not drawn) [compound 187, [2,6-dimethoxy-4-[5-(1-methylpyrazol-4-yl)benzimidazol-1-yl]phenyl]-(2-phenylazetidin-1-yl)methanone]
10 to 100 nM | 10 to 100 nM | 100 to 500 nM | CCC1(O)CN(C(=O)c2c(OC)cc(-n3cnc4cc(-c5cnn(C)c5)ccc43)cc2OC)C1 [compound 218, [2,6-dimethoxy-4-[5-(1-methylpyrazol-4-yl)benzimidazol-1-yl]phenyl]-(3-ethyl-3-hydroxy-azetidin-1-yl)methanone]
10 to 100 nM | 10 to 100 nM | 10 to 100 nM | COc1cc(-n2cnc3cc(-c4c[nH]cn4)ccc32)cc(OC)c1C(=O)NCC(F)(F)F [compound 153, 4-[5-(1H-imidazol-4-yl)benzimidazol-1-yl]-2,6-dimethoxy-N-(2,2,2-trifluoroethyl)benzamide]
> 500 nM | > 500 nM | > 500 nM | CCn1cc(-c2ccc3c(c2)ncn3-c2cc(OC)c(C(=O)N(C)CCOC)c(OC)c2)cn1 [compound 27, 4-[5-(1-ethylpyrazol-4-yl)benzimidazol-1-yl]-2,6-dimethoxy-N-(2-methoxyethyl)-N-methyl-benzamide]
100 to 500 nM | 10 to 100 nM | 10 to 100 nM | CCn1cc(-c2ccc3c(c2)ncn3-c2cc(OC)c(C(=O)NCCO)c(OC)c2)cn1 [compound 5, 4-[5-(1-ethylpyrazol-4-yl)benzimidazol-1-yl]-N-(2-hydroxyethyl)-2,6-dimethoxy-benzamide]
10 to 100 nM | 10 to 100 nM | 100 to 500 nM | COc1cc(-n2cnc3cc(-c4cnn(C)c4)ccc32)cc(OC)c1C(=O)N1CC(OC)C1 [compound 190, [2,6-dimethoxy-4-[5-(1-methylpyrazol-4-yl)benzimidazol-1-yl]phenyl]-(3-methoxyazetidin-1-yl)methanone]
> 500 nM | > 500 nM | 100 to 500 nM | COc1cc(-n2cnc3cc(-c4cnn(C)c4)ccc32)cc(OC)c1C(=O)NC(C)(C)C(F)(F)F [compound 68, 2,6-dimethoxy-4-[5-(1-methylpyrazol-4-yl)benzimidazol-1-yl]-N-(2,2,2-trifluoro-1,1-dimethyl-ethyl)benzamide]
10 to 100 nM | 0.01 to 10 nM | 10 to 100 nM | COc1cc(-c2cnc3cc(-c4cnn(C)c4)ccn23)cc(OC)c1C(=O)NC1CS(=O)(=O)C1 [compound 130, N-(1,1-dioxothietan-3-yl)-2.6-dimethoxy-4-[7-(l-methylpyrazol-4-yl)imidazo[1,2-a]pyridin-3-yl]benzamide]
100 to 500 nM | 100 to 500 nM | 10 to 100 nM | COc1cncc(-c2ccc3c(c2)ncn3-c2cc(OC)c(C(=O)NCC(F)(F)F)c(OC)c2)c1 [compound 35, 2,6-dimethoxy-4-[5-(5-methoxy-3-pyridyl)benzimidazol-1-yl]-N-(2,2,2-trifluoroethyl)benzamide]
10 to 100 nM | 10 to 100 nM | 10 to 100 nM | COc1cc(-n2cnc3cc(-c4cnn(C)c4)ccc32)cc(OC)c1C(=O)NC(C)C(F)F (stereo not drawn) [compound 91, N-(2,2-difluoro-1-methyl-ethyl)-2,6-dimethoxy-4-[5-(1-methylpyrazol-4-yl)benzimidazol-1-yl]benzamide]
> 500 nM | > 500 nM | > 500 nM | CCn1cc(-c2ccc3c(c2)ncn3-c2cc(OC)c(C(=O)N(C)CC(C)C)c(OC)c2)cn1 [compound 28, 4-[5-(1-ethylpyrazol-4-yl)benzimidazol-1-yl]-N-isobutyl-2,6-dimethoxy-N-methyl-benzamide]
10 to 100 nM | 10 to 100 nM | 10 to 100 nM | COc1cc(-n2cnc3cc(-c4ccn(C)n4)ccc32)cc(OC)c1C(=O)NCC(F)(F)F [compound 89, 2,6-dimethoxy-4-[5-(1-methylpyrazol-3-yl)benzimidazol-1-yl]-N-(2,2,2-trifluoroethyl)benzamide]
100 to 500 nM | > 500 nM | 100 to 500 nM | COc1cc(-n2cnc3cc(-c4cnn(C)c4)ccc32)cc(OC)c1C(=O)N1CCC(OC(F)(F)F)CC1 [compound 198, [2,6-dimethoxy-4-[5-(1-methylpyrazol-4-yl)benzimidazol-1-yl]phenyl]-[4-(trifluoromethoxy)-1-piperidyl]methanone]
100 to 500 nM | 10 to 100 nM | 10 to 100 nM | COc1cc(-n2cnc3cc(-c4cnn(C)c4)ccc32)cc(OC)c1C(=O)NC1CS(=O)(=O)C1 [compound 64, N-(1,1-dioxothietan-3-yl)-2,6-dimethoxy-4-[5-(1-methylpyrazol-4-yl)benzimidazol-1-yl]benzamide]
10 to 100 nM | 10 to 100 nM | 10 to 100 nM | COc1cc(-n2cnc3cc(-c4cnn(C)c4)ccc32)cc(OC)c1C(=O)NC1CCCC1(F)F (stereo not drawn) [compound 90, N-(2,2-difluorocyclopentyl)-2,6-dimethoxy-4-[5-(1-methylpyrazol-4-yl)benzimidazol-1-yl]benzamide]
100 to 500 nM | 10 to 100 nM | 10 to 100 nM | COc1cc(-n2cnc3cc(-c4ccc(N)nc4)ccc32)cc(OC)c1C(=O)NCC(F)(F)F [compound 38, 4-[5-(6-amino-3-pyridyl)benzimidazol-1-yl]-2,6-dimethoxy-N-(2,2,2-trifluoroethyl)benzamide]
> 500 nM | > 500 nM | > 500 nM | COc1cc(-n2cnc3cc(-c4cnn(C)c4)ccc32)cc(OC)c1C(=O)N1CCC(c2ccccc2)C1 (stereo not drawn) [compound 196, [2,6-dimethoxy-4-[5-(1-methylpyrazol-4-yl)benzimidazol-1-yl]phenyl]-(3-phenylpyrrolidin-1-yl)methanone]
> 500 nM | 100 to 500 nM | > 500 nM | COc1cc(-n2cnc3cc(-c4cnn(C)c4)ccc32)cc(OC)c1C(=O)NCc1ccn(C)n1 [compound 61]
100 to 500 nM | 100 to 500 nM | 100 to 500 nM | CCC(C)NC(=O)c1c(OC)cc(-n2cnc3cc(-c4cnn(C)c4)ccc32)cc1OC (stereo not drawn) [compound 114, 2,6-dimethoxy-4-[5-(1-methylpyrazol-4-yl)benzimidazol-1-yl]-N-sec-butyl-benzamide]
10 to 100 nM | 10 to 100 nM | 0.01 to 10 nM | COc1cc(-c2cnc3cc(-c4cnc(N)nc4)ccn23)cc(OC)c1C(=O)NCC(F)(F)F [compound 246, 4-[7-(2-aminopyrimidin-5-yl)imidazo[1,2-a]pyridin-3-yl]-2,6-dimethoxy-N-(2,2,2-trifluoroethyl)benzamide]
100 to 500 nM | 10 to 100 nM | 10 to 100 nM | COc1cc(-n2cnc3cc(-c4cccnc4)ccc32)cc(OC)c1C(=O)NCC(F)(F)F [compound 39, 2,6-dimethoxy-4-[5-(3-pyridyl)benzimidazol-1-yl]-N-(2,2,2-trifluoroethyl)benzamide]
100 to 500 nM | 10 to 100 nM | 10 to 100 nM | COc1cc(-c2cnc3cc(-c4cn(C)nc4C(F)(F)F)ccn23)cc(OC)c1C(=O)NCC(F)(F)F [compound 249, 2,6-dimethoxy-4-[7-[1-methyl-3-(trifluoromethyl)pyrazol-4-yl]imidazo[1,2-a]pyridin-3-yl]-N-(2,2,2-trifluoroethyl)benzamide]
> 500 nM | > 500 nM | > 500 nM | COc1cc(-n2cnc3cc(-c4cnn(C)c4)ccc32)cc(OC)c1C(=O)N1CCC(F)CC1 [compound 197, [2,6-dimetlioxy-4-[5-(1-methylpyrazol-4-yl)benzimidazol-1-yl]phenyl]-(4-fluoro-1-piperidyl)methanone]
100 to 500 nM | 100 to 500 nM | 10 to 100 nM | COc1cc(-n2cnc3cc(-c4cnn(C)c4)ccc32)cc(OC)c1C(=O)N1CCC1 [compound 162, azetidin-1-yl-[2,6-dimethoxy-4-[5-(1-methylpyrazol-4-yl)benzimidazol-1-yl]phenyl]methanone]
